Test results reported in US20050020501A1, “Methods of modulating the activity of mura” (SmithKline Beecham Corporation and SmithKline Beechm p.l.c., priority 2000, published 2005).
pKi: −log10 of the molar value. ≈ marks a conversion by molar mass, not a printed value. Entries after “also recorded” stand apart in the source; their conditions may differ. Structures can show the parent of a compound that is named as a salt. Where two headings read alike, the source gives them in different places.

Assays:
[1] = biological target: T1, EPSP Synthase (S. pneumoniae) (Streptococcus pneumoniae serotype 4, UniProt Q9S400); experiment: EPSPS kinetic assay, fluorescence coupled detection of inorganic phosphate release; type: biochemical; conditions: for Inhibition type vs. S3P / Inhibition type vs. PEP: EPSP synthase; for Inhibition type vs. S3P: varied substrate S3P; for Inhibition of EPSPS (in words): rosolic acid tested up to 2 mM; for Inhibition type vs. PEP: varied substrate PEP
T1 construct: made in house
T1 sequence (Q9S400 whole entry): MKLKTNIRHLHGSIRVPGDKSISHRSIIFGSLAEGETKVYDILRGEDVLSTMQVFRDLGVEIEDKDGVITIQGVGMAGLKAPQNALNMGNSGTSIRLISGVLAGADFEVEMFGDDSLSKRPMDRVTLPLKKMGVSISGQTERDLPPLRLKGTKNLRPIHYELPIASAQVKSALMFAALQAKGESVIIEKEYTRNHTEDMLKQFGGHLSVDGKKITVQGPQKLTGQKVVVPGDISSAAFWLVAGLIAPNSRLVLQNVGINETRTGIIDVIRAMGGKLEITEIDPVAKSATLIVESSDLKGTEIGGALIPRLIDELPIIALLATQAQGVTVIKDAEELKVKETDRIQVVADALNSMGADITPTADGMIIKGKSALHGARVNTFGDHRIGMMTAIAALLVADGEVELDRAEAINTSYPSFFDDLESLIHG
Text: (§1) All chemicals including ATA and its salt forms are from Aldrich. SKF-26488-W3 was isolated as a high-throughput screen hit against EPSPS. Escherichia coli MurA (Marquardt, et al., J. Bacteriol., Vol. 174: 5748-5752 (1992)) and Streptococcus pneumoniae EPSPS (Du, et al., Eur. J. Biochem., Vol. 267: 222-227 (2000)) were expressed and purified as described previously.
(§2) The assays for both EPSPS and MurA are based on the detection of inorganic phosphate release. A fluorescence coupled assay was used for EPSPS and was performed in 100 mM HEPES, pH 7.0, 1 mM NH4Cl, 100 mM KCl. (Du, et al., Eur. J. Biochem., Vol. 267: 222-227 (2000)). MurA was assayed in 50 mM HEPES, pH 7.5, 1 mM DTI using the Malachite Green reagent (Lanzetta, et al., Anal. Biochem., Vol. 100: 95-97 (1979)). The Ki values were determined with fixed concentration of one substrate and varying concentrations of the other substrate and inhibitor. Data were analyzed using GraFit v4.09 (Erithacus Software Ltd.).

MurA (E. coli) = biological target: T2, MurA (E. coli) (Escherichia coli, UniProt P0A749); experiment: MurA kinetic assay, Malachite Green detection of inorganic phosphate release; type: biochemical; conditions: for pKi / Inhibition type vs. PEP / Inhibition type vs. UDPAG: MurA
T2 construct: made in house
T2 sequence (P0A749 whole entry): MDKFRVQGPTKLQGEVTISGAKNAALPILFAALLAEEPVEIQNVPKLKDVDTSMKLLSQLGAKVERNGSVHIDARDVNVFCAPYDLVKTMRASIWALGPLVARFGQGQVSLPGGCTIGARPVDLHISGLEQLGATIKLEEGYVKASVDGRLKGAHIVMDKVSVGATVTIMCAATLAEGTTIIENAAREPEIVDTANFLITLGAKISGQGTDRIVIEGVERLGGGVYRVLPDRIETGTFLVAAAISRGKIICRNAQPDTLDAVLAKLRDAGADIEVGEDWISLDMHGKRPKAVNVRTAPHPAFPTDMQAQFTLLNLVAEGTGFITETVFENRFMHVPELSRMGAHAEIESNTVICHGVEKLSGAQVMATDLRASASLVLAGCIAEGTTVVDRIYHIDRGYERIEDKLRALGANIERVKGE
Text: as §1, §2

S. pneumoniae 100993 = experiment: Antibacterial activity, minimum inhibitory concentration; type: cell-based, Streptococcus pneumoniae; conditions: for Effect of adding aromatic amino acids and PABA on antibacterial activity in minimal media: minimal media with versus without aromatic amino acids and PABA; for Antibacterial activity compared across media: TH media and minimal media with and without supplements
Protocol: The antibacterial activity of ATA against S.pneumoniae100993 was measured in Todd Hewitt media, minimal media, and minimal media+aromatic amino acids (100 mg/L) and p-aminobenzoic acid (PABA) (0.2 mg/L). Glyphosate, chloramphenical and ciprofloxacin were controls.

[2] = Streptococcus pneumoniae, 100993, read-out: Minimum Inhibitory Concentration, Minimal media
[3] = Streptococcus pneumoniae, 100993, read-out: Minimum Inhibitory Concentration, Minimal media w/aa's + PABA
[4] = Streptococcus pneumoniae, 100993, read-out: Minimum Inhibitory Concentration, TH
[5] = Streptococcus pneumoniae, 100993, Chemically Defined Medium for Group A Streptococci without aromatic amino acids and PABA, read-out: Minimum Inhibitory Concentration, Minimal media
[6] = Streptococcus pneumoniae, 100993, JRH Strep media with aromatic amino acids and PABA, read-out: Minimum Inhibitory Concentration, Minimal media w/aa's + PABA
[7] = Streptococcus pneumoniae, 100993, Todd Hewitt broth, read-out: Minimum Inhibitory Concentration, TH

SMILES: N.N.N.O=C(O)C1=CC(=C(c2ccc(O)c(C(=O)O)c2)c2ccc(O)c(C(=O)O)c2)C=CC1=O [ATA ammonium salt]
- Inhibition type vs. S3P [1]: competitive inhibitors vs. S3P
- Inhibition of EPSPS (in words) [1]: specific inhibitors of EPSPS

SMILES: O=C(O)C1=CC(=C(c2ccc(O)c(C(=O)O)c2)c2ccc(O)c(C(=O)O)c2)C=CC1=O [ATA sodium salt]
- Inhibition type vs. S3P [1]: competitive inhibitors vs. S3P
- Inhibition of EPSPS (in words) [1]: specific inhibitors of EPSPS

SMILES: O=C(O)C1=CC(=C(c2ccc(O)c(C(=O)O)c2)c2ccc(O)c(C(=O)O)c2)C=CC1=O [Aurin Tricarboxylic Acid]
- Inhibition type vs. PEP [1]: Noncompetitive
- Inhibition type vs. S3P [1]: Competitive
- Inhibition type vs. S3P ([1]; listed as aurin tricarboxylic acid): competitive inhibitors vs. S3P
- pKi ([1]; Ki vs. S3P, EPSPS, competitive vs. S3P, range given for ATA and its sodium and ammonium salts together): 5.35 to 5.55
- Potency against MurA relative to RA (MurA (E. coli); ATA versus RA, MurA from Escherichia coli): ~200 fold
- pKi (MurA (E. coli); Ki vs. UDPAG, varied substrate UDPAG): 6.64
- Inhibition type vs. PEP (MurA (E. coli); varied substrate PEP): Non-specific inhibition
- Inhibition type vs. UDPAG (MurA (E. coli); varied substrate UDPAG): Competitive
- Inhibition type vs. UDPAG (MurA (E. coli); varied substrate UDPAG, listed as ATA): competitive vs UDPAG
- Inhibition pattern of MurA versus both substrates (in words) (MurA (E. coli); versus UDPAG and PEP): specific inhibition patterns versus both substrates
- MIC (S. pneumoniae 100993; [2]): 2 µg/mL (≈ 4.74 µM)
- MIC (S. pneumoniae 100993; [3]): 4 µg/mL
- MIC (S. pneumoniae 100993; [4]): > 128 µg/mL
- Activity in minimal media relative to TH media (S. pneumoniae 100993; minimal media versus TH media): more than 64 fold
- Effect of adding aromatic amino acids and PABA on antibacterial activity in minimal media (S. pneumoniae 100993): not reversed

SMILES: O=C(N[C@H](CO)[C@H](O)c1ccc([N+](=O)[O-])cc1)C(Cl)Cl [Chloramphenicol]
- MIC (S. pneumoniae 100993; [5]): 2 µg/mL (≈ 6.19 µM)
- MIC (S. pneumoniae 100993; [6]): 2 µg/mL
- MIC (S. pneumoniae 100993; [7]): 2 µg/mL (≈ 6.19 µM)
- Antibacterial activity compared across media (S. pneumoniae 100993): substantially the same

SMILES: O=C(O)c1cn(C2CC2)c2cc(N3CCNCC3)c(F)cc2c1=O [Ciprofloxacin]
- MIC (S. pneumoniae 100993; [5]): 2 µg/mL (≈ 6.04 µM)
- MIC (S. pneumoniae 100993; [6]): 2 µg/mL
- MIC (S. pneumoniae 100993; [7]): 2 µg/mL (≈ 6.04 µM)
- Antibacterial activity compared across media (S. pneumoniae 100993): substantially the same

SMILES: O=C(O)CNCP(=O)(O)O [Glyphosate]
- MIC (S. pneumoniae 100993; [2]): 512 µg/mL (≈ 3030 µM)
- MIC (S. pneumoniae 100993; [3]): > 512 µg/mL
- MIC (S. pneumoniae 100993; [4]): > 512 µg/mL
- Antibacterial activity in TH media (in words) (S. pneumoniae 100993; TH media): no antibacterial activity
- Effect of adding aromatic amino acids and PABA on antibacterial activity in minimal media (S. pneumoniae 100993): reversed

SMILES: O=C1C=CC(=C(c2ccc(O)cc2)c2ccc(O)cc2)C=C1 [Rosolic Acid]
- Inhibition type vs. PEP [1]: No inhibition (up to 2 mM)
- Inhibition type vs. S3P [1]: No inhibition (up to 2 mM)
- Inhibition of EPSPS (in words) [1]: does not inhibit EPSPS up to 2 mM
- Inhibition type vs. PEP (MurA (E. coli); varied substrate PEP): Mixed type inhibition
- pKi (MurA (E. coli); varied substrate PEP, mixed type inhibition, second constant, read-out: Ki′ vs. PEP): 3.56
- pKi (MurA (E. coli); varied substrate PEP, mixed type inhibition, read-out: Ki vs. PEP): 4.96
- Inhibition type vs. UDPAG (MurA (E. coli); varied substrate UDPAG): Competitive
- Inhibition type vs. UDPAG (MurA (E. coli); varied substrate UDPAG, listed as RA): competitive vs UDPAG; also recorded: competitive inhibitor versus UDPAG, although a poor one
- pKi (MurA (E. coli); varied substrate UDPAG, read-out: Ki vs. UDPAG): 4.35

SMILES: O=C(O)C1=CC(=C(c2ccc(O)c(C(=O)O)c2)c2ccc(O)c(C(=O)O)c2)C=CC1=O [SKB-26488-W3, aurin tricarboxylic acid]
- IC50 against EPSPS ([1]; high-throughput screening of EPSPS): in the μM range
